Patent US20070111965A1, “COMPOSITIONS COMPRISING LIPOXYGENASE INHIBITORS AND CYCLODEXTRIN” (priority 2005, published 2007)

How the values were obtained:
[1] = 25° C., pH range of 4 to 7, literature data; cited from earlier work
[2] = type: physicochemical
Description: The low solubility in water of certain N-hydroxyurea 5- and/or 12-lipoxygenase inhibitors prevents these beneficial agents from broader use than they would otherwise enjoy if aqueous formulations could be prepared at therapeutically effective concentrations. […] In addition to its poor solubility, zileuton and likely other N-hydroxyurea lipoxygenase inhibitors are predicted to be chemically unstable in aqueous solution for storage at room temperature for prolonged periods of time [Insert Reference]. Degradation is consistent with specific hydronium- or water-catalyzed hydrolysis to afford the carbamic acid, which immediately loses carbon dioxide to generate the hydroxylamine as shown below. [drawing 2]
No buffer catalysis has been observed for zileuton. Using acid- and water-catalyzed rate constants at 25° C., the pseudo first-order rate constant is determined to be approximately 7.8×10^−5 h^−1 over a pH range of about 3.5 to about 7.5. The shelf life at 10% drug loss is calculated to be 57.3 days at an optimal pH of 5.6.
Based on literature data [Alvarez, F J; Slade, R T. Kinetics and mechanism of degradation of zileuton, a potent 5-lipoxygenase inhibitor. Pharm. Res., 1992, 9(11): 1465-1473], zileuton in solution is expected to have adequate short-term stability (at least 1 month at 25° C.) over a pH range of 4 to 7.

[3] = cited from earlier work

CC(c1cc2ccccc2s1)N(O)C(N)=O (racemic) [zileuton, ((±)-1-(1-benzo[b]thien-2-ylethyl)-1-hydroxyurea]
short-term stability in solution [1]: at least 1 month
pseudo first-order rate constant (degradation) [2]: approximately 7.8×10^−5 h^−1
shelf life at 10% drug loss ([2]; optimal pH of 5.6, 25° C.): 57.3 days
solubility in acetonitrile ([3]; acetonitrile): slightly soluble
solubility in hexane and water ([3]; hexane and water): practically insoluble
solubility in methanol and ethanol ([3]; methanol and ethanol): soluble
water solubility ([3]; water, 25° C.): 80 to 140 µg/mL
